Laboratory results published in patent publication US9150566B2, “2-(1,2,3-triazol-2-yl)benzamide and 3-(1,2,3-triazol-2-YL)picolinamide derivatives as orexin receptor antagonists” (ACTELION PHARMACEUTICALS LTD., priority 2011, dated 2015).
Where two headings read alike, the source gives them in different places.

Experiments:
CYP3A4 = CYP3A4 (Homo sapiens (Human), UniProt P08684); test: CYP3A4 inhibition assay (human liver microsomes, testosterone 6β-hydroxylation); conditions: read-out: CYP3A4 IC50, 40 μM testosterone
Sequence of CYP3A4 (P08684 whole entry): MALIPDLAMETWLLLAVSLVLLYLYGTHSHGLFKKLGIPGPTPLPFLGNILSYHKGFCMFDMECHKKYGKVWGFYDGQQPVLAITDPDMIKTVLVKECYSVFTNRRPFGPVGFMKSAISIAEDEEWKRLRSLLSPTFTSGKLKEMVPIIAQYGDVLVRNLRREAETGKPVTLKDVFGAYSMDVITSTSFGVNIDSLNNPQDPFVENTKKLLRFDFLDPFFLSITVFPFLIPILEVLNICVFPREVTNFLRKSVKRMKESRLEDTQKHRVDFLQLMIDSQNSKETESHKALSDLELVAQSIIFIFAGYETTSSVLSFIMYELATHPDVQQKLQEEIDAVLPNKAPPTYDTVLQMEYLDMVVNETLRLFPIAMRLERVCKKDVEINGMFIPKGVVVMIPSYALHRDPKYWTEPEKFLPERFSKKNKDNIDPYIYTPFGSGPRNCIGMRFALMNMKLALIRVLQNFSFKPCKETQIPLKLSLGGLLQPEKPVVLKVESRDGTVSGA
Description: The CYP3A4 inhibition assay was performed using human liver microsomes and testosterone 6β-hydroxylation as a P450 isoform-specific marker. In a total volume of 150 μL, ^14C-testosterone at a final concentration of 40 μM in a 100 mM phosphate buffer (pH 7.4) was incubated in a 96-well plate with 0.3 mg/mL of human liver microsomes in an Eppendorf thermomixer at 37° C. and 400 rpm. […] The reaction was initiated by addition of 15 μL of the NADPH-regenerating system containing the glucose-6-phosphate dehydrogenase and terminated after 7 min with a 75 μL-aliquot of methanol. After centrifugation at 465 g and 4° C. for 20 min, a 50 μL-aliquot of the supernatant was submitted to HPLC according to the method described below. The total concentration of DMSO in the assay including controls without inhibitor was 1%.
Nicardipine was run in parallel as a reference inhibitor of CYP3A4 activity at final concentrations of 0, 0.1, 0.5, 1.0, 5.0, 10, 25, and 50 μM. Stock solutions thereof were prepared in DMSO.
The chromatographic separation of testosterone and 6β-hydroxytestosterone was achieved on a Phenomenex Luna C18(2) column (5 μm, 2.0×10 mm) at RT with a flow rate of 0.6 mL/min. Mobile phases consisted of 1% aqueous formic acid (phase A) and methanol (phase B) using a gradient method with 0.9 min total run time.
The quantification of 6β-hydroxytestosterone was carried out using a quadrupole mass spectrometer equipped with an ionspray interface operating in positive ion mode. The parameters of the mass detector were set as follows: capillary voltage 5 kV, auxiliary gas 40 psi, collision gas 3 mTorr, and transfer capillary temperature 420° C.

human orexin-1 receptor = human orexin-1 receptor (Homo sapiens (Human), UniProt O43613); test: In vitro intracellular calcium measurements (FLIPR), antagonistic activity on orexin-1 receptor; format: cell-based; conditions: read-out: IC50 OX1
Sequence of human orexin-1 receptor (O43613 whole entry): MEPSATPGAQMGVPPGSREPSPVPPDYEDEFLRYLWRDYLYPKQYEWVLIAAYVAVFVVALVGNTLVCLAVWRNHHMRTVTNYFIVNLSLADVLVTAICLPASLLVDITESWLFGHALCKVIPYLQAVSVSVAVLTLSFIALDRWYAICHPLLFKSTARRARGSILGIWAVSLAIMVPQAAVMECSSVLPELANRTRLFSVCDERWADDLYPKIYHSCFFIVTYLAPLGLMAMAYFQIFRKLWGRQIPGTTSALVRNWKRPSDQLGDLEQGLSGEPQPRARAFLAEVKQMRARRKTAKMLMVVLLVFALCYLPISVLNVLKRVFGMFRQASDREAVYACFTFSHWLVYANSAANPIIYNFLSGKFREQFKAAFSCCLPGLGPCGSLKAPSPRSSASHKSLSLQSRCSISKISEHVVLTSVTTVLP
In short: (§1)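 CHO cells expressing human orexin-1 or orexin-2 receptor were seeded overnight, preincubated with antagonist for 120 min, then stimulated with agonist in a FLIPR Tetra.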

human orexin-2 receptor = human orexin-2 receptor (Homo sapiens (Human), UniProt O43614); test: In vitro intracellular calcium measurements (FLIPR), antagonistic activity on orexin-2 receptor; format: cell-based; conditions: read-out: IC50 OX2
Sequence of human orexin-2 receptor (O43614 whole entry): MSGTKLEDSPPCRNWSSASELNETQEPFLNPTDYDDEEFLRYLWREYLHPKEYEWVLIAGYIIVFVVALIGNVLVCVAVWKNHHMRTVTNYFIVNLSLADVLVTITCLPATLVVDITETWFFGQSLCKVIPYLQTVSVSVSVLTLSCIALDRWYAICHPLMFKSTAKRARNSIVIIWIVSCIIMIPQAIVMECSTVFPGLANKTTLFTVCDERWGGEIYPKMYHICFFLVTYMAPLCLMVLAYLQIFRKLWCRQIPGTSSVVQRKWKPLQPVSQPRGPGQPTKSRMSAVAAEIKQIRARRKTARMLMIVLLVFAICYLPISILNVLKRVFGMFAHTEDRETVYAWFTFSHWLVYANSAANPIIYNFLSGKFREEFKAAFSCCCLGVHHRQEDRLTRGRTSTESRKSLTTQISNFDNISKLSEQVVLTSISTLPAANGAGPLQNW
In short: as §1

[1] = CHO cells expressing human orexin-1 receptor, FLIPR, 3 nM orexin-A agonist, 120 min antagonist incubation, geometric mean if determined several times
[2] = CHO cells expressing human orexin-2 receptor, FLIPR, 3 nM orexin-A agonist, 120 min antagonist incubation, geometric mean if determined several times

## Cc1ccc(C(=O)N2CCOC[C@H]2Cc2cccc(-n3cccn3)c2)c(-n2nccn2)c1 [Example 22, (4-Methyl-2-[1,2,3]triazol-2-yl-phenyl)-[(R)-3-(3-pyrazol-1-yl-benzyl)-morpholin-4-yl]-methanone]
CYP3A4
  IC50: 41000 nM
Human orexin-1 receptor; [1]
  IC50: 3 nM
Human orexin-2 receptor; [2]
  IC50: 318 nM

## Cc1ccc(-n2nccn2)c(C(=O)N2CCOC[C@H]2Cc2cccc(-n3cncn3)c2)c1 [Example 23, (5-Methyl-2-[1,2,3]triazol-2-yl-phenyl)-[(R)-3-(3-[1,2,4]triazol-1-yl-benzyl)-morpholin-4-yl]-methanone]
CYP3A4
  IC50: 6000 nM
Human orexin-1 receptor; [1]
  IC50: 34 nM
Human orexin-2 receptor; [2]
  IC50: 4780 nM

## Cc1ccc(-n2nccn2)c(C(=O)N2CCOC[C@H]2Cc2cccc(-c3ccccn3)c2)c1 [Example 24, (5-Methyl-2-[1,2,3]triazol-2-yl-phenyl)-[(R)-3-(3-pyridin-2-yl-benzyl)-morpholin-4-yl]-methanone]
CYP3A4
  IC50: > 50000 nM
Human orexin-1 receptor; [1]
  IC50: 3 nM
Human orexin-2 receptor; [2]
  IC50: 1030 nM

## O=C(c1cc(F)ccc1-n1nccn1)N1CCOC[C@H]1Cc1cccc(-n2nccn2)c1 [Example 26, (5-Fluoro-2-[1,2,3]triazol-2-yl-phenyl)-[(R)-3-(3-[1,2,3]triazol-2-yl-benzyl)-morpholin-4-yl]-methanone]
CYP3A4
  IC50: 24000 nM
Human orexin-1 receptor; [1]
  IC50: 21 nM
Human orexin-2 receptor; [2]
  IC50: 822 nM

## Cc1ccc(-n2nccn2)c(C(=O)N2CCOC[C@H]2Cc2cccc(-c3ccncc3)c2)c1 [Example 28, (5-Methyl-2-[1,2,3]triazol-2-yl-phenyl)-[(R)-3-(3-pyridin-4-yl-benzyl)-morpholin-4-yl]-methanone]
CYP3A4
  IC50: 300 nM
Human orexin-1 receptor; [1]
  IC50: 43 nM
Human orexin-2 receptor; [2]
  IC50: 2110 nM

## N#Cc1ccc(-n2nccn2)c(C(=O)N2CCOC[C@H]2Cc2cccc(-n3nccn3)c2)c1 [Example 31, 4-[1,2,3]Triazol-2-yl-3-[(R)-3-(3-[1,2,3]triazol-2-yl-benzyl)-morpholine-4-carbonyl]-benzonitrile]
CYP3A4
  IC50: > 50000 nM
Human orexin-1 receptor; [1]
  IC50: 33 nM
Human orexin-2 receptor; [2]
  IC50: 360 nM

## COc1ccc(-n2nccn2)c(C(=O)N2CCOC[C@H]2Cc2cccc(-n3nccn3)c2)c1 [Example 32, (5-Methoxy-2-[1,2,3]triazol-2-yl-phenyl)-[(R)-3-(3-[1,2,3]triazol-2-yl-benzyl)-morpholin-4-yl]-methanone]
CYP3A4
  IC50: > 50000 nM
Human orexin-1 receptor
  IC50: 7 nM
Human orexin-2 receptor
  IC50: 489 nM

## COc1ccc(-n2nccn2)c(C(=O)N2CCOC[C@H]2Cc2cccc(-n3nccn3)c2)c1F [Example 33, (2-Fluoro-3-methoxy-6-[1,2,3]triazol-2-yl-phenyl)-[(R)-3-(3-[1,2,3]triazol-2-yl-benzyl)-morpholin-4-yl]-methanone]
CYP3A4
  IC50: > 50000 nM
Human orexin-1 receptor; [1]
  IC50: 14 nM
Human orexin-2 receptor; [2]
  IC50: 1200 nM

## COc1cc(C(=O)N2CCOC[C@H]2Cc2cccc(-n3nccn3)c2)c(-n2nccn2)cc1OC [Example 34, (4,5-Dimethoxy-2-[1,2,3]triazol-2-yl-phenyl)-[(R)-3-(3-[1,2,3]triazol-2-yl-benzyl)-morpholin-4-yl]-methanone]
CYP3A4
  IC50: > 50000 nM
Human orexin-1 receptor; [1]
  IC50: 5 nM
Human orexin-2 receptor; [2]
  IC50: 1230 nM

## O=C(c1ccc(F)cc1-n1nccn1)N1CCOC[C@H]1Cc1cccc(-n2nccn2)c1 [Example 36, (4-Fluoro-2-[1,2,3]triazol-2-yl-phenyl)-[(R)-3-(3-[1,2,3]triazol-2-yl-benzyl)-morpholin-4-yl]-methanone]
CYP3A4
  IC50: 36000 nM
Human orexin-1 receptor
  IC50: 41 nM
Human orexin-2 receptor
  IC50: 889 nM

## Cc1ccc(-n2nccn2)c(C(=O)N2CCOC[C@H]2Cc2cccc(-c3nccc(C)n3)c2)c1 [Example 39, {(R)-3-[3-(4-Methyl-pyrimidin-2-yl)-benzyl]-morpholin-4-yl}-(5-methyl-2-[1,2,3]triazol-2-yl-phenyl)-methanone]
CYP3A4
  IC50: 18000 nM
Human orexin-1 receptor; [1]
  IC50: 5 nM
Human orexin-2 receptor; [2]
  IC50: 231 nM

## O=C(c1ccccc1-n1nccn1)N1CCOC[C@H]1Cc1cccc(-c2ncco2)c1 [Example 42, [(R)-3-(3-Oxazol-2-yl-benzyl)-morpholin-4-yl]-(2-[1,2,3]triazol-2-yl-phenyl)-methanone]
CYP3A4
  IC50: 5100 nM
Human orexin-1 receptor; [1]
  IC50: 34 nM
Human orexin-2 receptor; [2]
  IC50: 2010 nM

## Cc1ccc(-n2nccn2)c(C(=O)N2CCOC[C@H]2Cc2cccc(-c3nccs3)c2)c1 [Example 43, (5-Methyl-2-[1,2,3]triazol-2-yl-phenyl)-[(R)-3-(3-thiazol-2-yl-benzyl)-morpholin-4-yl]-methanone]
CYP3A4
  IC50: 1200 nM
Human orexin-1 receptor; [1]
  IC50: 0.3 nM
Human orexin-2 receptor; [2]
  IC50: 273 nM

## O=C(c1ccccc1-n1nccn1)N1CCOC[C@H]1Cc1cccc(-c2nccs2)c1 [Example 44, [(R)-3-(3-Thiazol-2-yl-benzyl)-morpholin-4-yl]-(2-[1,2,3]triazol-2-yl-phenyl)-methanone]
CYP3A4
  IC50: 2000 nM
Human orexin-1 receptor; [1]
  IC50: 2 nM
Human orexin-2 receptor; [2]
  IC50: 457 nM

## Cc1ccc(-n2nccn2)c(C(=O)N2CCOC[C@H]2Cc2cccc(-c3cccnn3)c2)c1 [Example 47, (5-Methyl-2-[1,2,3]triazol-2-yl-phenyl)-[(R)-3-(3-pyridazin-3-yl-benzyl)-morpholin-4-yl]-methanone]
CYP3A4
  IC50: 6000 nM
Human orexin-1 receptor; [1]
  IC50: 13 nM
Human orexin-2 receptor; [2]
  IC50: 2380 nM

## O=C(c1ccccc1-n1nccn1)N1CCOC[C@H]1Cc1cccc(-c2cccnn2)c1 [Example 48, [(R)-3-(3-Pyridazin-3-yl-benzyl)-morpholin-4-yl]-(2-[1,2,3]triazol-2-yl-phenyl)-methanone]
CYP3A4
  IC50: 9600 nM
Human orexin-1 receptor; [1]
  IC50: 39 nM
Human orexin-2 receptor; [2]
  IC50: 4440 nM

## COc1ccc(-n2nccn2)c(C(=O)N2CCOC[C@H]2Cc2cccc(-c3ncccn3)c2)c1 [Example 50, (5-Methoxy-2-[1,2,3]triazol-2-yl-phenyl)-[(R)-3-(3-pyrimidin-2-yl-benzyl)-morpholin-4-yl]-methanone]
CYP3A4
  IC50: > 50000 nM
Human orexin-1 receptor; [1]
  IC50: 2 nM
Human orexin-2 receptor; [2]
  IC50: 942 nM

## O=C(c1cc(Cl)ccc1-n1nccn1)N1CCOC[C@H]1Cc1cccc(-c2ncccn2)c1 [Example 51, (5-Chloro-2-[1,2,3]triazol-2-yl-phenyl)-[(R)-3-(3-pyrimidin-2-yl-benzyl)-morpholin-4-yl]-methanone]
CYP3A4
  IC50: 20000 nM
Human orexin-1 receptor; [1]
  IC50: 3 nM
Human orexin-2 receptor; [2]
  IC50: 229 nM

## Cc1ccc(-n2nccn2)c(C(=O)N2CCOC[C@H]2Cc2cccc(-n3nccn3)c2)n1 [Example 52, (6-Methyl-3-[1,2,3]triazol-2-yl-pyridin-2-yl)-[(R)-3-(3-[1,2,3]triazol-2-yl-benzyl)-morpholin-4-yl]-methanone]
CYP3A4
  IC50: > 50000 nM
Human orexin-1 receptor; [1]
  IC50: 43 nM
Human orexin-2 receptor; [2]
  IC50: 1630 nM

## Cc1ccc(-n2nccn2)c(C(=O)N2CCOC[C@H]2Cc2cccc(-n3cccn3)c2)n1 [Example 53, (6-Methyl-3-[1,2,3]triazol-2-yl-pyridin-2-yl)-[(R)-3-(3-pyrazol-1-yl-benzyl)-morpholin-4-yl]-methanone]
CYP3A4
  IC50: > 50000 nM
Human orexin-1 receptor; [1]
  IC50: 27 nM
Human orexin-2 receptor; [2]
  IC50: 3400 nM

## O=C(c1cccc(F)c1-n1nccn1)N1CCOC[C@H]1Cc1cccc(-n2nccn2)c1 [Example 54, (3-Fluoro-2-[1,2,3]triazol-2-yl-phenyl)-[(R)-3-(3-[1,2,3]triazol-2-yl-benzyl)-morpholin-4-yl]-methanone]
CYP3A4
  IC50: > 50000 nM
Human orexin-1 receptor; [1]
  IC50: 46 nM
Human orexin-2 receptor; [2]
  IC50: 1820 nM

## Cc1ccc(-n2nccn2)c(C(=O)N2CCOC[C@H]2Cc2cc(-n3nccn3)ccc2F)c1 [Example 56, [(R)-3-(2-Fluoro-5-[1,2,3]triazol-2-yl-benzyl)-morpholin-4-yl]-(5-methyl-2-[1,2,3]triazol-2-yl-phenyl)-methanone]
CYP3A4
  IC50: 33000 nM
Human orexin-1 receptor; [1]
  IC50: 4 nM
Human orexin-2 receptor; [2]
  IC50: 837 nM

## O=C(c1ccccc1-n1nccn1)N1CCOC[C@H]1Cc1cc(-n2nccn2)ccc1F [Example 57, [(R)-3-(2-Fluoro-5-[1,2,3]triazol-2-yl-benzyl)-morpholin-4-yl]-(2-[1,2,3]triazol-2-yl-phenyl)-methanone]
CYP3A4
  IC50: 20000 nM
Human orexin-1 receptor; [1]
  IC50: 48 nM
Human orexin-2 receptor; [2]
  IC50: 2740 nM

## COc1ccc(C[C@@H]2COCCN2C(=O)c2cc(C)ccc2-n2nccn2)cc1-c1ncon1 [Example 58, [(R)-3-(4-Methoxy-3-[1,2,4]oxadiazol-3-yl-benzyl)-morpholin-4-yl]-(5-methyl-2-[1,2,3]triazol-2-yl-phenyl)-methanone]
CYP3A4
  IC50: 42000 nM
Human orexin-1 receptor; [1]
  IC50: 0.7 nM
Human orexin-2 receptor; [2]
  IC50: 42 nM

## COc1ccc(C[C@@H]2COCCN2C(=O)c2ccccc2-n2nccn2)cc1-c1ncon1 [Example 59, [(R)-3-(4-Methoxy-3-[1,2,4]oxadiazol-3-yl-benzyl)-morpholin-4-yl]-(2-[1,2,3]triazol-2-yl-phenyl)-methanone]
CYP3A4
  IC50: 32000 nM
Human orexin-1 receptor; [1]
  IC50: 1 nM
Human orexin-2 receptor; [2]
  IC50: 80 nM

## COc1ccc(C[C@@H]2COCCN2C(=O)c2ccc(C)cc2-n2nccn2)cc1-c1ncon1 [Example 60, [(R)-3-(4-Methoxy-3-[1,2,4]oxadiazol-3-yl-benzyl)-morpholin-4-yl]-(4-methyl-2-[1,2,3]triazol-2-yl-phenyl)-methanone]
CYP3A4
  IC50: 41000 nM
Human orexin-1 receptor; [1]
  IC50: 0.7 nM
Human orexin-2 receptor; [2]
  IC50: 34 nM

## COc1ccc(C[C@@H]2COCCN2C(=O)c2ccc(F)cc2-n2nccn2)cc1-c1ncon1 [Example 61, (4-Fluoro-2-[1,2,3]triazol-2-yl-phenyl)-[(R)-3-(4-methoxy-3-[1,2,4]oxadiazol-3-yl-benzyl)-morpholin-4-yl]-methanone]
CYP3A4
  IC50: 42000 nM
Human orexin-1 receptor; [1]
  IC50: 1 nM
Human orexin-2 receptor; [2]
  IC50: 60 nM

## Cc1ccc(-n2nccn2)c(C(=O)N2CCOC[C@H]2Cc2ccc(C)c(-n3nccn3)c2)c1 [Example 65, [(R)-3-(4-Methyl-3-[1,2,3]triazol-2-yl-benzyl)-morpholin-4-yl]-(5-methyl-2-[1,2,3]triazol-2-yl-phenyl)-methanone]
CYP3A4
  IC50: 22000 nM
Human orexin-1 receptor; [1]
  IC50: 2 nM
Human orexin-2 receptor; [2]
  IC50: 261 nM
